Columns and labels:
cutaneous tissue = conditions: in vivo; cited from earlier work
Saccharomyces cerevisiae [1] = experiment: Induction of nuclear back mutations (his- to His+) in yeast; conditions: vs 3-CPs or angelicin plus 365 nm light
Procedure: A wild-type strain 211-1aM (29) of Saccharomyces cerivisiae was used, and the following mutants derived from it: S24-12c rad2-20 deficient in excision repair and S25-13b rad9-4 likely to be blocked in a recombinational repair pathway; a double mutant S 2057NL-24 rad2-20 -rad9-4 clone B was obtained by tetrad analysis of a heterozygote [formula]
The media and culture conditions used were as described in D. Averbeck, E. Moustacchi, (1975) Biochim. Biophys. Acta, 395, 393-404.
10^6 cells/ml in saline (0.9% NaCl) were treated for 30 minutes with the drugs at a final concentration of 10 μg/ml and 1.2% ethanol present.
A Philips HPW 125 culot Edison high pressure mercury lamp was used with maximal output at the wavelength 365 nm. The irradiation dose measured by actinometry was 10 J/m^2 per sec., using the following set up: 10 ml of actinometer solution (or the cell suspension, usually 1×10^6 cells/ml), stirred continuously by a magnetic stirrer, were irradiated at room temperature in an open Petri dish of 10 cm diameter at a distance of 10 cm from the center of the light bulb which was mounted horizontally. A 2 mm thick pyrex glass sheet (20×25 cm) was placed in the center of the light beam to cut out UV light of wavelength below 340 nm. […]

Saccharomyces cerevisiae [2] = experiment: Repair of photoinduced lesions in yeast (repair mutants, agar holding); assay type: cell-based; conditions: wild-type cells
Excerpt: Biophys. Acta, 395, 393-404.
Consequently, it appears that the excision repair pathway in wild type and rad9-4 cells is essential in AHR for both compounds.

[3] = system: skin of homozygote albino mice strain XVII nc/Z; experiment: Chronic topical application on the ears of mice plus 365 nm UV irradiation (tumors, skin reactions); assay type: in vivo
Procedure: The experiments were effected on groups of 40 mice, male and female.
After 115 topical applications of psoralen, followed each time by 10 minutes of irradiation (cumulative doses of 2.07×10^6 J/m^2), 100% of the animals developed a tumor; 50% having tumors on two ears.
3-CPs was also tested intraperitoneally (36 injections of 0.4 mg each over a period of 7 weeks).
In all these experiments the U.V. lamp was of the type of HPW 125 W, manufactured by Philips.

DNA = conditions: cited from earlier work
[4] = Comparison of activity with compounds of analogous structure; conditions: comparison with the compounds of the invention
Excerpt: V. In order to compare the activity of the compounds of the invention with compounds having an analogous structure

[5] = 115 topical applications, cumulative doses 2.07×10^6 J/m^2

In the case of `Cc1cc2cc3c(C)c(C)c(=O)oc3c(C)c2o1` [3,4,5',8-tetramethylpsoralen], the photosensitizing activity (cutaneous tissue) is given as “inactive or to induce very weak photosensitivity”.

For `O=c1ccc2cc3ccoc3cc2o1` [psoralen], the “effectiveness in inducing nuclear back mutations (his- to His+) relative to monofunctional furocoumarins or 254 nm UV alone” value (Saccharomyces cerevisiae [1]) is listed as “at least 10 fold”, the “kinetics of agar holding recovery (AHR)” value (Saccharomyces cerevisiae [2]) is listed as “same kinetics of AHR” and the photosensitizing activity (cutaneous tissue) is listed as “most effective photo-sensitizers”. The “animals developing a tumor on ears” value ([3]; 24 applications, cumulative dose 4.5×10^5 J/m^2) was 3%, the “animals developing a tumor on ears” value [3, 5] was 100% and the “animals having tumors on two ears” value [3, 5] was 50%. The cutaneous reactions ([3]; chronic topical, two ears, 365 nm UV) was “significant cutaneous reactions, such as an erythema, followed by intensive chronic inflammation even followed by necrosis” and the “dose dependence of tumor development on ears” value ([3]; mouse, in vivo) was “dose dependent”.

In the case of `Cc1cc2cc3c4c(c(=O)oc3c(C)c2o1)CCCC4` [3,4-cyclohexeno-5',8-dimethylpsoralen], the photosensitizing activity (cutaneous tissue) is listed as “inactive or to induce very weak photosensitivity”.

In the case of `CCCCc1c(C)c2cc3cc(C)oc3c(C)c2oc1=O` [3-n-butyl-4,5',8-trimethylpsoralen], the photosensitizing activity (cutaneous tissue) is given as “inactive or to induce very weak photosensitivity”.

In the case of `O=c1ccc2ccc3occc3c2o1` [angelicin], the “binding to DNA and RNA” value (DNA) is listed as “bind equally well to DNA and RNA” and the “kinetics of agar holding recovery (AHR)” value (Saccharomyces cerevisiae [2]) is listed as “same kinetics of AHR”.

For `Cc1cc2cc3ccoc3cc2oc1=O` [3-methylpsoralen], the photosensitizing activity (cutaneous tissue) is listed as “inactive or to induce very weak photosensitivity”.

For `Cc1cc2cc3c(C)cc(=O)oc3c(C)c2o1` [4,5',8-trimethylpsoralen], the “reactivity with DNA in vitro relative to 8-MOP” value (DNA; in vitro) is given as “about 12 times more reactive”.

For 3,4-dibenzo-5,8-dimethylpsoralen, the photosensitizing activity (cutaneous tissue) is listed as “inactive or to induce very weak photosensitivity”.

For `Cc1cc2cc3cc(C)c(=O)oc3c(C)c2o1` [3,5',8-trimethylpsoralen], the photosensitizing activity (cutaneous tissue) is given as “inactive or to induce very weak photosensitivity”.

With `CC(C)(C)OC(=O)c1cc2cc3ccoc3cc2oc1=O` [psoralen 3-t-butylcarboxylate] the activity [4] was “inactive”.

Reference: US4260630A, “Skin diseases” (priority 1977, dated 1981)
